In PMC9454457 (Journal of Nuclear Medicine, 2022):
Read-outs that look alike come from different tables or passages of the source.

What was measured:
[1] = Biodistribution in PC-3 tumor-bearing CB17-SCID mice; assay type: in vivo; conditions: 24 h after injection; for tissue uptake at 24 h: CB17-SCID, mouse, intravenous, total radioactivity
Procedure: A detailed description of tumor inoculation is provided in the supplemental materials. Approximately 2–5 MBq (100 pmol, 150 μL) of the ^177Lu-labeled GRPR ligands were injected into the tail vein of anesthetized (2% isoflurane) PC-3 tumor–bearing mice (biodistribution, n = 4; imaging, n = 1).
For biodistribution studies, organs were removed, weighed, and measured in a γ-counter (Perkin Elmer) after euthanasia at 24 h after injection.
For all competition studies, 3.62 mg/kg (40 nmol) of ^natLu-RM2 (10^−3 M in phosphate-buffered saline) were coadministered.

[2] = In vitro metabolic stability in human plasma; assay type: in vitro ADME; conditions: 37°C, 72 ± 2 h, n = 4
Procedure: Metabolic stability in vitro was determined through a procedure published by Linder et al. that was slightly modified ([16]). Immediately after labeling, 200 μL of human plasma were added and the mixture was incubated at 37°C for 72 ± 2 h. Proteins were precipitated by treatment with ice-cold EtOH (150 μL) and ice-cold MeCN (450 μL), followed by centrifugation (13,000 rpm, 20 min). The supernatants were decanted and further centrifuged (13,000 rpm, 10 min) using a Costar Spin-X (Corning) centrifuge tube filter (0.45 μm). The filtrated plasma samples were analyzed using radio–RP-HPLC.
(§1) FIGURE 2. Preclinical data of ^nat/177Lu-RM2 (red), ^nat/177Lu-NeoBOMB1 (gray), ^nat/177Lu-AMTG (green), and ^nat/177Lu-AMTG2 (blue). (A) Affinity data on PC-3 and T-47D cells (1.5 × 10^5 cells/mL/well) using 3-^125I-D-Tyr^6-MJ9 (0.2 nM/well) as radiolabeled reference (2 h, room temperature, Hanks’ balanced salt solution plus 1% bovine serum albumin [v/v]). (B) GRPR-mediated internalization (0.25 pmol/well) on PC-3 cells as percentage of applied activity (incubation at 37°C for 1 h, Dulbecco modified Eagle medium/F-12 plus 5% bovine serum albumin [v/v], 1.5 × 10^5 cells/mL/well). Data were corrected for nonspecific binding (10^−3 M ^natLu-RM2). (C) Lipophilicity at pH 7.4 (logD7.4). (D) Metabolic stability in vitro in human plasma (left) (37°C, 72 ± 2 h; n = 4), and metabolic stability in vivo in murine plasma (middle) and murine urine (right) at 30 min after injection (n = 3). Data are expressed as mean ± SD.

[3] = In vivo metabolic stability in murine plasma and urine; set-up: species or system CB17-SCID mice; conditions: 30 min after injection, n = 3
Procedure: Approximately 30–40 MBq (1 nmol, 150 μL) of the ^177Lu-labeled compounds were injected into the tail vein of anesthetized CB17-SCID mice (n = 3). After euthanasia at 30 min after injection, blood and urine samples were collected. Blood proteins were precipitated by treatment with ice-cold MeCN (v/v = 1/1), followed by centrifugation (13,000 rpm, 20 min). The supernatants were decanted and further centrifuged (13,000 rpm, 10 min) using a Costar Spin-X centrifuge tube filter (0.45 μm). The filtrated plasma samples and the urine samples were analyzed using radio–RP-HPLC.
as §1

[4] = adrenal, 100 pmol, 100 pmol, n = 4, read-out: Biodistribution, Adrenal
[5] = adrenal, 3.62 mg/kg, coinjection of natLu-RM2 3.62 mg/kg, n = 3, read-out: Biodistribution, Adrenal, competition study
[6] = blood, 100 pmol, 100 pmol, n = 4, read-out: Biodistribution, Blood
[7] = blood, 3.62 mg/kg, coinjection of natLu-RM2 3.62 mg/kg, n = 3, read-out: Biodistribution, Blood, competition study
[8] = bone, 100 pmol, 100 pmol, n = 4, read-out: Biodistribution, Bone
[9] = bone, 3.62 mg/kg, coinjection of natLu-RM2 3.62 mg/kg, n = 3, read-out: Biodistribution, Bone, competition study
[10] = heart, 100 pmol, 100 pmol, n = 4, read-out: Biodistribution, Heart
[11] = heart, 3.62 mg/kg, coinjection of natLu-RM2 3.62 mg/kg, n = 3, read-out: Biodistribution, Heart, competition study
[12] = intestine, 100 pmol, 100 pmol, n = 4, read-out: Biodistribution, Intestine
[13] = intestine, 3.62 mg/kg, coinjection of natLu-RM2 3.62 mg/kg, n = 3, read-out: Biodistribution, Intestine, competition study
[14] = kidney, 100 pmol, 100 pmol, n = 4, read-out: Biodistribution, Kidney
[15] = kidney, 3.62 mg/kg, coinjection of natLu-RM2 3.62 mg/kg, n = 3, read-out: Biodistribution, Kidney, competition study
[16] = liver, 100 pmol, 100 pmol, n = 4, read-out: Biodistribution, Liver
[17] = liver, 3.62 mg/kg, coinjection of natLu-RM2 3.62 mg/kg, n = 3, read-out: Biodistribution, Liver, competition study
[18] = lung, 100 pmol, 100 pmol, n = 4, read-out: Biodistribution, Lung
[19] = lung, 3.62 mg/kg, coinjection of natLu-RM2 3.62 mg/kg, n = 3, read-out: Biodistribution, Lung, competition study
[20] = muscle, 100 pmol, 100 pmol, n = 4, read-out: Biodistribution, Muscle
[21] = muscle, 3.62 mg/kg, coinjection of natLu-RM2 3.62 mg/kg, n = 3, read-out: Biodistribution, Muscle, competition study
[22] = pancreas, 100 pmol, 100 pmol, n = 4, read-out: Biodistribution, Pancreas
[23] = pancreas, 3.62 mg/kg, coinjection of natLu-RM2 3.62 mg/kg, n = 3, read-out: Biodistribution, Pancreas, competition study
[24] = spleen, 100 pmol, 100 pmol, n = 4, read-out: Biodistribution, Spleen
[25] = spleen, 3.62 mg/kg, coinjection of natLu-RM2 3.62 mg/kg, n = 3, read-out: Biodistribution, Spleen, competition study
[26] = stomach, 100 pmol, 100 pmol, n = 4, read-out: Biodistribution, Stomach
[27] = stomach, 3.62 mg/kg, coinjection of natLu-RM2 3.62 mg/kg, n = 3, read-out: Biodistribution, Stomach, competition study
[28] = tumor (PC-3), 100 pmol, PC-3 tumor, 100 pmol, n = 4, read-out: Biodistribution, Tumor
[29] = tumor (PC-3), 3.62 mg/kg, PC-3 tumor, coinjection of natLu-RM2 3.62 mg/kg, n = 3, read-out: Biodistribution, Tumor, competition study

**Q.** With `CC(C)C[C@H](NC(=O)C[C@H](O)[C@H](CC(C)C)NC(=O)[C@H](Cc1c[nH]cn1)NC(=O)CNC(=O)[C@@H](NC(=O)[C@H](C)NC(=O)[C@](C)(Cc1c[nH]c2ccccc12)NC(=O)[C@H](CCC(N)=O)NC(=O)[C@@H](Cc1ccccc1)NC(=O)CN1CCC(NC(=O)CCC(C(=O)O)N2CCN(CC(=O)O)CCN(CC(=O)O)CCN(CC(=O)O)CC2)CC1)C(C)C)C(N)=O` (stereo partly drawn) [^177Lu-AMTG2, ^177Lu-DOTAGA-α-Me-L-Trp^8-RM2, metal not drawn] as the compound, how does the tissue uptake at 24 h [1, 4] read?
**A.** 0.26 ± 0.14 %ID/g

**Q.** What about the tissue uptake at 24 h [1, 5] of the same compound?
**A.** 0.03 ± 0.02 %ID/g

**Q.** And the tissue uptake at 24 h [1, 6]?
**A.** 0.011 %ID/g

**Q.** And the tissue uptake at 24 h [1, 7]?
**A.** 0.002 ± 0.001 %ID/g

**Q.** What about the tissue uptake at 24 h [1, 8] of the same compound?
**A.** 0.22 ± 0.05 %ID/g

**Q.** What about the tissue uptake at 24 h [1, 9] of the same compound?
**A.** 0.02 ± 0.01 %ID/g

**Q.** What about the tissue uptake at 24 h [1, 10] of the same compound?
**A.** 0.03 ± 0.02 %ID/g

**Q.** What about the tissue uptake at 24 h [1, 11] of the same compound?
**A.** 0.02 ± 0.01 %ID/g

**Q.** And the tissue uptake at 24 h [1, 12]?
**A.** 0.3 ± 0.04 %ID/g

**Q.** And the tissue uptake at 24 h [1, 13]?
**A.** 0.34 ± 0.35 %ID/g

**Q.** And the tissue uptake at 24 h [1, 14]?
**A.** 1.2 to 1.9 %ID/g

**Q.** And the tissue uptake at 24 h [1, 15]?
**A.** 1.63 ± 0.44 %ID/g

**Q.** What about the tissue uptake at 24 h [1, 16] of the same compound?
**A.** 0.32 ± 0.14 %ID/g

**Q.** And the tissue uptake at 24 h [1, 17]?
**A.** 0.74 ± 0.44 %ID/g

**Q.** What about the tissue uptake at 24 h [1, 18] of the same compound?
**A.** 0.05 ± 0.01 %ID/g

**Q.** And the tissue uptake at 24 h [1, 19]?
**A.** 1.18 ± 1.49 %ID/g

**Q.** What about the tissue uptake at 24 h [1, 20] of the same compound?
**A.** 0.003 ± 0.003 %ID/g

**Q.** What about the tissue uptake at 24 h [1, 21] of the same compound?
**A.** 0.003 ± 0.002 %ID/g

**Q.** And the tissue uptake at 24 h [1, 22]?
**A.** 0.95 ± 0.14 %ID/g

**Q.** What about the tissue uptake at 24 h [1, 23] of the same compound?
**A.** 0.07 ± 0.01 %ID/g

**Q.** What about the tissue uptake at 24 h [1, 24] of the same compound?
**A.** 0.15 ± 0.07 %ID/g

**Q.** And the tissue uptake at 24 h [1, 25]?
**A.** 1.06 ± 1.08 %ID/g

**Q.** And the tissue uptake at 24 h [1, 26]?
**A.** 0.12 ± 0.03 %ID/g

**Q.** And the tissue uptake at 24 h [1, 27]?
**A.** 0.04 ± 0.01 %ID/g

**Q.** And the tissue uptake at 24 h [1, 28]?
**A.** 7.97 ± 1.34 %ID/g

**Q.** And the tissue uptake at 24 h [1, 29]?
**A.** 0.36 ± 0.25 %ID/g

**Q.** And the “Intact compound in human plasma in vitro” value [2]?
**A.** 66.2% ± 5.1%

**Q.** And the “Intact tracer in murine plasma in vivo” value [3]?
**A.** 77.6% ± 3.1%

**Q.** And the “Intact tracer in murine urine in vivo” value [3]?
**A.** 61.6% ± 1.6%

**Q.** With `CC(C)C[C@H](NC(=O)C[C@H](O)[C@H](CC(C)C)NC(=O)[C@H](Cc1c[nH]cn1)NC(=O)CNC(=O)[C@@H](NC(=O)[C@H](C)NC(=O)[C@](C)(Cc1c[nH]c2ccccc12)NC(=O)[C@H](CCC(N)=O)NC(=O)[C@@H](Cc1ccccc1)NC(=O)CN1CCC(NC(=O)CN2CCN(CC(=O)O)CCN(CC(=O)O)CCN(CC(=O)O)CC2)CC1)C(C)C)C(N)=O` [^177Lu-AMTG, ^177Lu-α-Me-L-Trp^8-RM2, metal not drawn] as the compound, how does the “Higher activity level in PC-3 tumor than for 177Lu-RM2” value [1] read?
**A.** 35%

**Q.** And the tissue uptake at 24 h [1, 4]?
**A.** 0.46 ± 0.22 %ID/g

**Q.** What about the tissue uptake at 24 h [1, 5] of the same compound?
**A.** 0.09 ± 0.07 %ID/g

**Q.** And the tissue uptake at 24 h [1, 6]?
**A.** 0.004 ± 0.001 %ID/g

**Q.** And the tissue uptake at 24 h [1, 7]?
**A.** 0.003 %ID/g

**Q.** What about the tissue uptake at 24 h [1, 8] of the same compound?
**A.** 0.05 ± 0.02 %ID/g

**Q.** What about the tissue uptake at 24 h [1, 9] of the same compound?
**A.** 0.05 ± 0.03 %ID/g

**Q.** What about the tissue uptake at 24 h [1, 10] of the same compound?
**A.** 0.02 %ID/g

**Q.** What about the tissue uptake at 24 h [1, 11] of the same compound?
**A.** 0.02 ± 0.01 %ID/g

**Q.** What about the tissue uptake at 24 h [1, 12] of the same compound?
**A.** 0.2 ± 0.1 %ID/g

**Q.** And the tissue uptake at 24 h [1, 13]?
**A.** 0.27 ± 0.21 %ID/g

**Q.** What about the tissue uptake at 24 h [1, 14] of the same compound?
**A.** 1.2 to 1.9 %ID/g

**Q.** What about the tissue uptake at 24 h [1, 15] of the same compound?
**A.** 1.17 ± 0.26 %ID/g

**Q.** What about the tissue uptake at 24 h [1, 16] of the same compound?
**A.** 0.14 ± 0.03 %ID/g

**Q.** What about the tissue uptake at 24 h [1, 17] of the same compound?
**A.** 1.4 ± 0.86 %ID/g

**Q.** And the tissue uptake at 24 h [1, 18]?
**A.** 0.04 ± 0.01 %ID/g

**Q.** And the tissue uptake at 24 h [1, 19]?
**A.** 0.27 ± 0.15 %ID/g

**Q.** And the tissue uptake at 24 h [1, 20]?
**A.** 0.005 ± 0.003 %ID/g

**Q.** And the tissue uptake at 24 h [1, 21]?
**A.** 0.003 ± 0.002 %ID/g

**Q.** What about the tissue uptake at 24 h [1, 22] of the same compound?
**A.** 0.56 ± 0.3 %ID/g

**Q.** What about the tissue uptake at 24 h [1, 23] of the same compound?
**A.** 0.05 ± 0.03 %ID/g

**Q.** What about the tissue uptake at 24 h [1, 24] of the same compound?
**A.** 0.1 ± 0.02 %ID/g

**Q.** What about the tissue uptake at 24 h [1, 25] of the same compound?
**A.** 2.97 ± 2.01 %ID/g

**Q.** What about the tissue uptake at 24 h [1, 26] of the same compound?
**A.** 0.1 ± 0.04 %ID/g

**Q.** And the tissue uptake at 24 h [1, 27]?
**A.** 0.04 ± 0.02 %ID/g

**Q.** What about the tissue uptake at 24 h [1, 28] of the same compound?
**A.** 11.5 %ID/g

**Q.** And the tissue uptake at 24 h [1, 29]?
**A.** 0.33 ± 0.2 %ID/g

**Q.** And the “Intact compound in human plasma in vitro” value [2]?
**A.** 77.7% ± 8.7%

**Q.** What about the “Intact tracer in murine plasma in vivo” value [3] of the same compound?
**A.** 92.9% ± 0.7%

**Q.** And the “Intact tracer in murine urine in vivo” value [3]?
**A.** 68.2% ± 3.1%
